# Source: ChEMBL document CHEMBL1201862, “PubChem BioAssay data set” (2004)
#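 Values below derive from 48-hour exposures of cells grown in 96-well plates, with endpoints linearly interpolated between the two concentrations bracketing the appropriate inhibition level. GI50: concentration for 50% inhibition of growth.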 The source made the active and inactive calls. Cut-off read from the data, not from the text of the source: active = GI50 up to about 1.1 µM and inactive = higher.
# How the values were obtained:
# Experiment in all cases: NCI anticancer screen, dose series, 48 h
# 786-0 = system: 786-0
# A498 = system: A498
# A549 = system: A549
# ACHN = system: ACHN
# CAKI-1 = system: CAKI-1
# CCRF-CEM = system: CCRF-CEM
# COLO 205 = system: COLO 205
# DLD-1 = system: DLD-1
# DMS-114 = system: DMS-114
# EKVX = system: EKVX
# HCC 2998 = system: HCC 2998
# HCT-116 = system: HCT-116
# HL-60 = system: HL-60
# HOP-18 = system: HOP-18
# HOP-62 = system: HOP-62
# HOP-92 = system: HOP-92
# HT-29 = system: HT-29
# IGROV-1 = system: IGROV-1
# K562 = system: K562
# KM-20L2 = system: KM-20L2
# KM12 = system: KM12
# LOX IMVI = system: LOX IMVI
# LXFL 529 = system: LXFL 529
# M14 = system: M14
# M19-MEL = system: M19-MEL
# MOLT-4 = system: MOLT-4
# Malme-3M = system: Malme-3M
# NCI-H226 = system: NCI-H226
# NCI-H23 = system: NCI-H23
# NCI-H460 = system: NCI-H460
# NCI-H522 = system: NCI-H522
# OVCAR-3 = system: OVCAR-3
# OVCAR-4 = system: OVCAR-4
# OVCAR-5 = system: OVCAR-5
# OVCAR-8 = system: OVCAR-8
# RPMI-8226 = system: RPMI-8226
# RXF 393 = system: RXF 393
# RXF 631 = system: RXF 631
# SF-268 = system: SF-268
# SF-295 = system: SF-295
# SF-539 = system: SF-539
# SK-MEL-28 = system: SK-MEL-28
# SK-MEL-2 = system: SK-MEL-2
# SK-OV-3 = system: SK-OV-3
# SN12C = system: SN12C
# SNB-19 = system: SNB-19
# SNB-75 = system: SNB-75
# SR = system: SR
# SW-620 = system: SW-620
# TK-10 = system: TK-10
# U-251 = system: U-251
# UACC-257 = system: UACC-257
# UACC-62 = system: UACC-62
# UO-31 = system: UO-31
# XF498 = system: XF498
# DMS-273 = system: DMS-273
# HCT-15 = system: HCT-15
# SK-MEL-5 = system: SK-MEL-5
# SNB-78 = system: SNB-78
structure (smiles),measurement,setting,value
O=C(CCc1ccccc1)NS(=O)(=O)c1ccccc1,GI50,786-0,> 100 µM (inactive)
same,GI50,A498,> 100 µM (inactive)
same,GI50,A549,> 100 µM (inactive)
same,GI50,ACHN,> 100 µM (inactive)
same,GI50,CAKI-1,> 100 µM (inactive)
same,GI50,CCRF-CEM,> 100 µM (inactive)
same,GI50,COLO 205,> 100 µM (inactive)
same,GI50,DLD-1,> 100 µM (inactive)
same,GI50,DMS-114,> 100 µM (inactive)
same,GI50,EKVX,> 100 µM (inactive)
same,GI50,HCC 2998,> 100 µM (inactive)
same,GI50,HCT-116,> 100 µM (inactive)
same,GI50,HL-60,> 100 µM (inactive)
same,GI50,HOP-18,> 100 µM (inactive)
same,GI50,HOP-62,> 100 µM (inactive)
same,GI50,HOP-92,> 100 µM (inactive)
same,GI50,HT-29,> 100 µM (inactive)
same,GI50,IGROV-1,> 100 µM (inactive)
same,GI50,K562,> 100 µM (inactive)
same,GI50,KM-20L2,> 100 µM (inactive)
same,GI50,KM12,> 100 µM (inactive)
same,GI50,LOX IMVI,> 100 µM (inactive)
same,GI50,LXFL 529,> 100 µM (inactive)
same,GI50,M14,> 100 µM (inactive)
same,GI50,M19-MEL,> 100 µM (inactive)
same,GI50,MOLT-4,> 100 µM (inactive)
same,GI50,Malme-3M,> 100 µM (inactive)
same,GI50,NCI-H226,> 100 µM (inactive)
same,GI50,NCI-H23,> 100 µM (inactive)
same,GI50,NCI-H460,> 100 µM (inactive)
same,GI50,NCI-H522,> 100 µM (inactive)
same,GI50,OVCAR-3,> 100 µM (inactive)
same,GI50,OVCAR-4,> 100 µM (inactive)
same,GI50,OVCAR-5,> 100 µM (inactive)
same,GI50,OVCAR-8,> 100 µM (inactive)
same,GI50,RPMI-8226,> 100 µM (inactive)
same,GI50,RXF 393,> 100 µM (inactive)
same,GI50,RXF 631,> 100 µM (inactive)
same,GI50,SF-268,> 100 µM (inactive)
same,GI50,SF-295,> 100 µM (inactive)
same,GI50,SF-539,> 100 µM (inactive)
same,GI50,SK-MEL-28,> 100 µM (inactive)
same,GI50,SK-MEL-2,> 100 µM (inactive)
same,GI50,SK-OV-3,> 100 µM (inactive)
same,GI50,SN12C,> 100 µM (inactive)
same,GI50,SNB-19,> 100 µM (inactive)
same,GI50,SNB-75,> 100 µM (inactive)
same,GI50,SR,> 100 µM (inactive)
same,GI50,SW-620,> 100 µM (inactive)
same,GI50,TK-10,> 100 µM (inactive)
same,GI50,U-251,> 100 µM (inactive)
same,GI50,UACC-257,> 100 µM (inactive)
same,GI50,UACC-62,> 100 µM (inactive)
same,GI50,UO-31,> 100 µM (inactive)
same,GI50,XF498,> 100 µM (inactive)
C[C@@H]1CC(=O)C2CCCC1C2=O (some centres undefined),GI50,786-0,> 100 µM (inactive)
same,GI50,A498,> 100 µM (inactive)
same,GI50,A549,> 100 µM (inactive)
same,GI50,ACHN,> 100 µM (inactive)
same,GI50,CAKI-1,> 100 µM (inactive)
same,GI50,CCRF-CEM,> 100 µM (inactive)
same,GI50,COLO 205,45.7 µM (inactive)
same,GI50,DLD-1,> 100 µM (inactive)
same,GI50,DMS-114,> 100 µM (inactive)
same,GI50,DMS-273,> 100 µM (inactive)
same,GI50,EKVX,> 100 µM (inactive)
same,GI50,HCC 2998,> 100 µM (inactive)
same,GI50,HCT-116,> 100 µM (inactive)
same,GI50,HCT-15,> 100 µM
same,GI50,HL-60,> 100 µM (inactive)
same,GI50,HOP-18,> 100 µM (inactive)
same,GI50,HOP-62,> 100 µM (inactive)
same,GI50,HOP-92,> 100 µM (inactive)
same,GI50,HT-29,> 100 µM (inactive)
same,GI50,IGROV-1,> 100 µM (inactive)
same,GI50,KM-20L2,> 100 µM (inactive)
same,GI50,KM12,> 100 µM (inactive)
same,GI50,LOX IMVI,> 100 µM (inactive)
same,GI50,LXFL 529,> 100 µM (inactive)
same,GI50,M14,> 100 µM (inactive)
same,GI50,M19-MEL,> 100 µM (inactive)
same,GI50,MOLT-4,> 100 µM (inactive)
same,GI50,Malme-3M,> 100 µM (inactive)
same,GI50,NCI-H226,> 100 µM (inactive)
same,GI50,NCI-H460,> 100 µM (inactive)
same,GI50,NCI-H522,> 100 µM (inactive)
same,GI50,OVCAR-3,> 100 µM (inactive)
same,GI50,OVCAR-4,> 100 µM (inactive)
same,GI50,OVCAR-5,> 100 µM (inactive)
same,GI50,OVCAR-8,> 100 µM (inactive)
same,GI50,RPMI-8226,> 100 µM (inactive)
same,GI50,RXF 393,> 100 µM (inactive)
same,GI50,RXF 631,> 100 µM (inactive)
same,GI50,SF-268,> 100 µM (inactive)
same,GI50,SF-295,> 100 µM (inactive)
same,GI50,SF-539,> 100 µM (inactive)
same,GI50,SK-MEL-28,> 100 µM (inactive)
same,GI50,SK-MEL-5,> 100 µM (inactive)
same,GI50,SK-OV-3,> 100 µM (inactive)
same,GI50,SN12C,> 100 µM (inactive)
same,GI50,SNB-19,> 100 µM (inactive)
same,GI50,SNB-75,> 100 µM (inactive)
same,GI50,SNB-78,> 100 µM (inactive)
same,GI50,SR,> 100 µM (inactive)
same,GI50,SW-620,> 100 µM (inactive)
same,GI50,TK-10,> 100 µM (inactive)
same,GI50,U-251,> 100 µM (inactive)
same,GI50,UACC-257,> 100 µM (inactive)
same,GI50,UACC-62,> 100 µM (inactive)
same,GI50,UO-31,> 100 µM (inactive)
Cc1cn(C2CC(N(C)C)C(CO)O2)c(=O)[nH]c1=O (centres undefined),GI50,786-0,> 100 µM (inactive)
same,GI50,A498,> 100 µM (inactive)
same,GI50,ACHN,> 100 µM (inactive)
same,GI50,CAKI-1,> 100 µM (inactive)
same,GI50,CCRF-CEM,> 100 µM (inactive)
same,GI50,COLO 205,> 100 µM (inactive)
same,GI50,DLD-1,> 100 µM (inactive)
same,GI50,DMS-114,> 100 µM (inactive)
same,GI50,DMS-273,> 100 µM (inactive)
same,GI50,HCC 2998,> 100 µM (inactive)
same,GI50,HCT-116,> 100 µM (inactive)
same,GI50,HL-60,> 100 µM (inactive)
same,GI50,HOP-62,> 100 µM (inactive)
same,GI50,HOP-92,> 100 µM (inactive)
same,GI50,IGROV-1,> 100 µM (inactive)
same,GI50,K562,> 100 µM (inactive)
same,GI50,LXFL 529,> 100 µM (inactive)
same,GI50,M14,> 100 µM (inactive)
same,GI50,M19-MEL,> 100 µM (inactive)
same,GI50,MOLT-4,> 100 µM (inactive)
same,GI50,Malme-3M,> 100 µM (inactive)
same,GI50,NCI-H226,> 100 µM (inactive)
same,GI50,NCI-H23,> 100 µM (inactive)
same,GI50,NCI-H522,> 100 µM (inactive)
same,GI50,OVCAR-4,> 100 µM (inactive)
same,GI50,RPMI-8226,> 100 µM (inactive)
same,GI50,RXF 631,> 100 µM (inactive)
same,GI50,SF-268,> 100 µM (inactive)
same,GI50,SF-539,> 100 µM (inactive)
same,GI50,SK-MEL-28,> 100 µM (inactive)
same,GI50,SK-MEL-2,> 100 µM (inactive)
same,GI50,SK-OV-3,> 100 µM (inactive)
same,GI50,SN12C,> 100 µM (inactive)
same,GI50,SNB-75,> 100 µM (inactive)
same,GI50,SNB-78,> 100 µM (inactive)
same,GI50,SR,> 100 µM (inactive)
same,GI50,UACC-62,> 100 µM (inactive)
same,GI50,UO-31,> 100 µM (inactive)
same,GI50,XF498,> 100 µM (inactive)
